Numbered stars: 1 amine (or outer) side, 2 acyl side, 3 side chain; on linkers, the order of the positions; unused ones are H or OH. Bridge positions count the residues as written; N and C are the ends. Square brackets hold non-standard residues; d marks the D form. Ends that are not written are not given here. Peptide text beside a SMILES is read from it. ξ: configuration not given here. ξαMeNle(6-ylidene) = CC(CCCC=[*:3])(N[*:1])C(=O)[*:2]; X1 = CC(CCCCCCC=[*:3])(N[*:1])C(=O)[*:2]; Suc = O=C(CCC(=O)[*:2])[*:1]
How the values were obtained:
[1] = target: MM.1S, B Lymphoblast (multiple myeloma); assay: Viability assay (MTT, Alamar Blue, hexosaminidase), 72 h; assay type: cell-based
Procedure: MM.1S, B Lymphoblast (multiple myeloma), ATCC: CRL-2974
(§1) Cell lines A549, MCF-7 and RAMOS were cultured in incubator under CO2 (6%) at 37° C. in DMEM high glucose (Dulbecco's Modified Eagle Solution, Gibco-BRL 31966-21) medium with 10% fetal bovine serum inactivated (FBS) (Gibco-BRL 10106-169). Cell lines HL-60 and MM.1S were cultured in incubator at 37° C. in RPMI-1640 (Sigma R8758) medium with 10% of fetal bovine serum inactivated (FBS) and 2 mM glutamine (Sigma G7513). Cell lines BJ were cultured in incubator under CO2 (6%) at 37° C. in Eagle's Minimum Essential Medium (Sigma, M-2279) with 10% fetal bovine serum inactivated (FBS) (Gibco-BRL 10106-169).
(§2) During the amplification step and the assays adherent cells were rinsed with DPBS (Dulbecco's Phosphate Buffered Saline, Sigma D1283) three times and afterward treated for 5 minutes with trypsin ([…]) (Gibco-BRL, 15400054) in solution of DPBS at 37° C., and, once detached, transferred in the culturing medium. No-adherent cells were centrifuged and transferred in the culturing medium. Cells were counted in a Neubauer chamber after labelling with Tripan-Blue.
(§3) A549, MCF-7 and JB cells were seeded at a density of 5000 cells/well and HL-60, MM.1S and Ramos at 10000 cells/well in 100 μl of medium in 96 well plates. After 24 h, the compounds to be tested were added to calculate the dose/response curve at the starting concentration of 100 μM with serial dilutions (1:1). Controls are the untreated cells. Each experiment was performed in triplicate.
(§4) Cells were incubated during 72 h in incubator under CO2 atmosphere at 37° C. Cell viability was measured by means of MTT (3-(4,5-dimethylthiazol-2-yl)-2.5-diphenyltetrazolium bromide) assay, Alamar Blue® (Biosource DAL1100) and Hexosaminidase activity test, consecutively, following manufacturer instructions.
(§5) MTT: 1. Stock solution of MTT (475989 Calbiochem) was 5 mg/ml in PBS 1×. As negative control (experiment noise) 3 wells were treated with 20 μl/well of a solution of SDS 10% in H2O. The same control was used for Alamar Blue/Hexosaminidase. 10 μl/well of MTT solution were added and the plate was incubated for 3-4 hr. The medium was discarded and 100 μl of extracting buffer (PBS 1×, 15% SDS, 50% […] N,N-Dimethylformamide, pH 4.7) were added to each well. Plates were incubated for 16 h at room temperature under orbital shaking. Absorbance at 570 nm was finally measured.
(§6) Alamar Blue: 10 μl Alamar Blue solution was added to each well and the plates were incubated for […] in the incubator. Fluorescence ratio at 535/590 (excitation/emission) was measured in Cytofluor (Millipore) fluorimeter. Blank control was determined by lysis of untreated cells with con 2% of Triton X100, right before adding Alamar Blue solution.
(§7) Hexosaminidase activity test: after Alamar Blue lecture, medium was discarded and plates were rinsed once with PBS. 60 μl hexosaminidase substrate (p-nitrophenol-N-acetyl-beta-D-glucosamide 7.5 mM [Sigma N-9376], sodium citrate 0.1 M, pH 5.0, 0.25% Triton X-100) was added to each well and the plates were incubated at 37° C. for 2-5 h, according to the cell type (hexosaminidase activity changes according to the cell type). […] Blank control was the same as described before.
(§8) Data analysis was performed calculating the percentage of cell viability normalized vs. the values of negative control, which was considered equal to 100%. The dose/response curve was fitted through the sigmoidal equation dose-response (variable slope) and the EC50 values were calculated as follow: Y=Bottom+(Top−Bottom)/(1+10^{[(Log EC50−X)*HillSlope]},

[2] = target: HL-60, promyeloblast (acute myelocytic leukemia, AML); assay: as above; assay type: cell-based
Procedure: HL-60, promyeloblast (acute myelocytic leukemia, AML), ECACC: 98070106
as §1, §2, §3, §4, §5, §6, §7, §8

[3] = target: RAMOS, B lymphocyte (Burkitt's Lymphoma); assay: as above; assay type: cell-based
Procedure: RAMOS, B lymphocyte (Burkitt's Lymphoma), ATCC: CRL-1596
as §1, §2, §3, §4, §5, §6, §7, §8

[4] = target: MCF-7, epithelial (breast cancer); assay: as above; assay type: cell-based
Procedure: MCF-7, epithelial (breast cancer), ECACC: 86012803
as §1, §2, §3, §4, §5, §6, §7, §8

several tumor cell lines = assay: Anticancer activity in viability assay, stated in words; assay type: cell-based
Procedure: as §3, §4, §8

[5] = target: A549, epithelial (lung cancer); assay: Viability assay (MTT, Alamar Blue, hexosaminidase), 72 h; assay type: cell-based
Procedure: A549, epithelial (lung cancer), ATCC:CCL-185
as §1, §2, §3, §4, §5, §6, §7, §8

[6] = Stability test in human plasma, 37 °C, UPLC-MS/MS; assay type: in vitro ADME
Procedure: Reagents: ACN LC-MS (Scharlab AC03712500); MeOH LC-MS (Scharlab ME03262500); IPA LC-MS (Scharlab AL03262500); HCOOH (Carlo Erba 405792); DPBS (Lonza BE17-512F); human plasma with EDTAK2 as anticoagulant were provided by Centre d'Investigació de Medicaments located at the Hospital de la Santa Creu i Sant Pau, C/. Sant Antoni Maria Claret 167, Pavelló Sant Frederic, 08025 Barcelona. Plasma was extracted from a healthy patient on 1 Feb. 2015. It was kept at −20° C. until the experiment day.
A calibration curve of eight non-zero concentration levels (from P1 to P8) was prepared in a concentration interval from 5 to 100 μM for S09. One blank sample of DPBS was also included. All calibration samples were analysed in duplicate. Calibration standard samples were prepared by addition of 30 μL of each calibration solution (from P1 to P8 and blank) to 270 μL of human plasma. Samples for incubation were prepared adding 15 μL of 1 mM solution of S09 to 135 μL of human plasma (final concentration 100 μM). 15 samples were prepared. Samples were incubated at 37° C. for 0, 0.5, 2, 6 and 24 h (three replicates were prepared for each incubation time).
An aliquot of 125 μL human plasma sample (blank, calibration standards and incubation samples) were processed using Sirocco™ Protein Precipitation plates (Waters). 375 μL of ACN were added to each well of the Sirocco plate. Then the samples were filtered applying vacuum (8-10 mm Hg) for about 5 minutes. The filtrates were evaporated under a steady stream of nitrogen (40° C.) and reconstituted with 150 μL of MeOH:H2O 0.1% HCOOH for analysis. Samples were analyzed by UPLC(ACQUITY Ultra Performance LC-MS/MS(API 3000).
UPLC conditions (X-Bridge C18 column; Pump A: H2O with 0.1% formic acid; Pump B Acetonitrile with 0.1% formic acid) using a linear gradient 5%-95% of B in 8 minutes (R. T.=5.95). The mean (out of 3 experiments) of the normalized percentage integrated area corresponding to the peak of S09 at different time are reported in table 11 below.

Molecule: NELKRSFFALRDQ-OH [IDP-L10, NELKRSFFALRDQ]
- EC50 [1]: > 100 µM
- EC50 [2]: > 100 µM
- EC50 [3]: > 100 µM
- EC50 [4]: > 100 µM
- anticancer activity (active / inactive) (several tumor cell lines): inactive

Molecule: CC[C@H](C)[C@H](NC(=O)[C@H](Cc1ccc(O)cc1)NC(=O)[C@H](C)NC(=O)[C@H](CC(C)C)NC(=O)[C@H](C)NC(=O)[C@H](CCCCN)NC(=O)[C@H](CCCCN)NC(=O)[C@H](Cc1ccccc1)NC(=O)[C@@H](NC(=O)[C@@H](NC(=O)[C@@H](NC(=O)[C@H](CCCCN)NC(=O)[C@@H]1CCCN1)[C@@H](C)CC)C(C)C)[C@@H](C)CC)C(=O)O [IDP-L14α, Pro-Lys-Val-Val-Ile-Leu-Lys-Lys-Ala-Thr-Ala-Tyr-Ile]
- EC50 [1]: > 100 µM
- EC50 [2]: > 100 µM
- EC50 [5]: > 100 µM
- EC50 [3]: > 100 µM
- EC50 [4]: > 100 µM
- anticancer activity (active / inactive) (several tumor cell lines): inactive

Molecule: CC[C@H](C)[C@H](NC(=O)[C@H](Cc1ccc(O)cc1)NC(=O)[C@H](C)NC(=O)C1(C)CCCC=CCCCCCCC(C)(NC(=O)[C@H](CCCCN)NC(=O)[C@@H]2CCCN2C(=O)[C@H](C)N)C(=O)N[C@@H](C(C)C)C(=O)N[C@@H]([C@@H](C)CC)C(=O)N[C@@H](CC(C)C)C(=O)N[C@@H](CCCCN)C(=O)N[C@@H](CCCCN)C(=O)N[C@@H](C)C(=O)N1)C(=O)N[C@@H](CC(C)C)C(=O)N[C@@H](CO)C(=O)O (some centres unmarked) [IDP-S09, APKXVILKKAXAYILS-OH] (H-APK[X1]VILKKA[ξαMeNle(6-ylidene)]AYILS-OH; staple 4-11; N-terminus assumed)
- % Remaining of active metabolyte (mean) ([6]; 100 μM, incubation time 0 h): 0%
- % Remaining of starting compound (mean) ([6]; 100 μM, incubation time 0 h): 100%
- % Remaining of active metabolyte (mean) ([6]; 100 μM, incubation time 2 h): 0%
- % Remaining of active metabolyte (mean) ([6]; 100 μM, incubation time 6 h): 0%
- % Remaining of active metabolyte (mean) ([6]; 100 μM, incubation time 24 h): 0%
- remaining at 2 h, 100 μM ([6]; human plasma (EDTA-K2), incubation time 2 h, read-out: % Remaining of starting compound (mean)): 106 ± 4.9%
- remaining at 6 h, 100 μM ([6]; human plasma (EDTA-K2), incubation time 6 h, read-out: % Remaining of starting compound (mean)): 90 ± 16%
- remaining at 24 h, 100 μM ([6]; human plasma (EDTA-K2), incubation time 24 h, read-out: % Remaining of starting compound (mean)): 97 ± 10%

Molecule: CC(C)C[C@H](NC(=O)[C@H](C)NC(=O)[C@H](C)NC(=O)[C@H](Cc1ccccc1)NC(=O)[C@H](CO)NC(=O)[C@H](CCCNC(=N)N)NC(=O)[C@H](CCCCN)NC(=O)[C@H](CC(C)C)NC(=O)[C@H](CCC(=O)O)NC(=O)[C@H](CC(N)=O)NC(=O)[C@H](CCCNC(=N)N)NC(=O)[C@H](CCCNC(=N)N)NC(=O)[C@H](CCC(N)=O)NC(=O)[C@H](CCCNC(=N)N)NC(=O)CCC(=O)O)C(=O)N[C@@H](CCCNC(=N)N)C(=O)N[C@@H](CC(=O)O)C(=O)N[C@@H](CCC(N)=O)C(=O)O [IDP-L12] (Suc-RQRRNELKRSFAALRDQ-OH; N-terminus and C-terminus assumed)
- EC50 [1]: > 100 µM
- EC50 [2]: > 100 µM
- EC50 [3]: > 100 µM
- EC50 [4]: > 100 µM
- anticancer activity (active / inactive) (several tumor cell lines): inactive

Molecule: CC(C)C[C@H](NC(=O)[C@H](C)NC(=O)[C@H](C)NC(=O)[C@H](Cc1ccccc1)NC(=O)[C@H](C)NC(=O)[C@H](CCCNC(=N)N)NC(=O)[C@H](CCCCN)NC(=O)[C@H](CC(C)C)NC(=O)[C@H](CCC(=O)O)NC(=O)[C@H](CC(N)=O)NC(=O)[C@H](CCCNC(=N)N)NC(=O)[C@H](CCCNC(=N)N)NC(=O)[C@H](CCC(N)=O)NC(=O)[C@H](CCCNC(=N)N)NC(=O)CCC(=O)O)C(=O)N[C@@H](CCCNC(=N)N)C(=O)N[C@@H](CC(=O)O)C(=O)N[C@@H](CCC(N)=O)C(=O)O [IDP-L13, RQRRNELKRAFAALRDQ] (Suc-RQRRNELKRAFAALRDQ-OH; N-terminus and C-terminus assumed)
- EC50 [1]: > 100 µM
- EC50 [2]: > 100 µM
- EC50 [3]: > 100 µM
- EC50 [4]: > 100 µM
- anticancer activity (active / inactive) (several tumor cell lines): inactive
